In brackets after ≈: the same amount, converted by molar mass. Several values for one entry are separate records, joined by “and”; a condition that tells them apart may be missing. Identical values can stand only once. Marks after values point to notes of the source that are not given here.
What was measured:
[1] = target: T1, catalytic subunit of human protein kinase CK2 (hCK2α) (Homo sapiens, UniProt P68400); test: Reverse ITC with MST-derived Kd (two types of binding sites, Kd constrained); settings: for ΔG1 / ΔG2 / Kd: constrained based on the MST-derived binding affinities; for ΔH1 / ΔS1 / ΔH2 / ΔS2: reverse ITC, two-site model, Kd from MST; for ΔH1 / ΔS1: strong site; for ΔH2 / ΔS2: weak site
T1 construct: made in house
Procedure: All ITC measurements were carried out at 25°C with the Nano ITC calorimeter (TA Instruments), using 250 rpm stirring and 1000 s delay between succeeding injections to the sample cell (950 μl). The first “technical” injection of a reduced volume (4–5 μl) was followed by 12 injections of 20 μl, however 16x15 μl or 10x25 μl schemes were occasionally used. The concentration of reagents varied depending on their affinities and experiment type. Thus 20–200 μM ligand solution was used as the titrant, but only 4–10 μM when placed in the sample cell. Accordingly, the sample cell was filled with 4–30 μM hCK2α solution, while 20–40 μM protein solution was placed in the syringe. For each ligand at least two titration experiments were done with different reagent concentrations, and occasionally with optimized injection volume. […] The automatically adjusted integration regions were used to minimize the impact of researcher’s arbitrary decision. The uncertainty of all determined values was estimated as the half-width of 67% confidence interval.

[2] = target: T1, catalytic subunit of human protein kinase CK2 (hCK2α); test: Reverse ITC (ligand titrated with hCK2α), one type of binding sites; settings: protein as titrant, 25°C
Procedure: (§1) It should be stressed that the solvent composition of protein and ligand samples were always identical, so that the protein and ligand concentrations were the only variable factors.
(§2) All ITC measurements were carried out at 25°C with the Nano ITC calorimeter (TA Instruments), using 250 rpm stirring and 1000 s delay between succeeding injections to the sample cell (950 μl). The first “technical” injection of a reduced volume (4–5 μl) was followed by 12 injections of 20 μl, however 16x15 μl or 10x25 μl schemes were occasionally used. The concentration of reagents varied depending on their affinities and experiment type. Thus 20–200 μM ligand solution was used as the titrant, but only 4–10 μM when placed in the sample cell. Accordingly, the sample cell was filled with 4–30 μM hCK2α solution, while 20–40 μM protein solution was placed in the syringe. For each ligand at least two titration experiments were done with different reagent concentrations, and occasionally with optimized injection volume. […] The resulting data were processed with the standard NanoAnalyze software package (version 3.5.0), assuming the model of one type of binding sites of the apparent stoichiometry close to 1:1. The automatically adjusted integration regions were used to minimize the impact of researcher’s arbitrary decision. The uncertainty of all determined values was estimated as the half-width of 67% confidence interval.

[3] = target: T1, catalytic subunit of human protein kinase CK2 (hCK2α); test: ITC (hCK2α titrated with the ligand), one type of binding sites; settings: ligand as titrant, 25°C
Procedure: as §1, §2

[4] = target: T1, catalytic subunit of human protein kinase CK2 (hCK2α); test: Microscale Thermophoresis (MST), global fit of two independent binding sites; settings: for Kd: global fit of 6 pseudo-titrations
Procedure: For MST experiments the protein sample additionally contained 5 mM β-mercaptoethanol to prevent sticking of protein to capillaries.
as §1
The concentration of the labeled protein was kept constant at ~100 nM, while the ligand to protein concentration ratio was in the range of 0.01 to 10^5 nM. The samples were loaded into K002 Monolith™ NT.115 Standard Treated Capillaries, which after 10 min incubation time were analyzed using the Monolith NT.115 (NanoTemper Technologies). […] The numerical model was based on the cubic equation describing the concentration-dependent equilibrium of the apo form of the protein, free ligand, and their 1:1 and 1:2 complexes K1⋅K2⋅[L]^3+(K1+K1⋅K2⋅(2⋅P0-L0))⋅[L]^2+(1+K1⋅(P0-L0))⋅[L]=L0 (1) where P0 and L0 are the total concentrations of the protein and ligand, respectively; K1 and K2 are the […] for 1:1 and 1:2 complexes; and [L] is the concentration of the free ligand. The above equation can be resolved by roots against [L]
Concentrations of 1:1 and 1:2 complexes equal K1∙[P]∙[L] and K1∙K2∙[P]∙[L]^2, respectively. The model was implemented in Origin 9.0 package (www.originlab.com). Dissociation constants, K1 and K2, were estimated globally for a series of 6 MST pseudo-titration experiments, while contributions of three protein forms (i.e. apo, and 1:1 and 1:2 complexes) to the observed MST signal were fitted individually for each experiment (S1 Fig).

[5] = target: T1, catalytic subunit of human protein kinase CK2 (hCK2α); test: Reverse ITC (ligand titrated with hCK2α), one type of binding sites; settings: strong site
[6] = Dynamic light scattering (DLS/SLS) of ligand nano-aggregates; type: physicochemical; settings: for formation of nano-aggregates (DLS autocorrelation function): 1 mM ligand, 25°C, buffer with 2% DMSO
Procedure: All DLS experiments were carried out at 25°C with the DynaPro NanoStar 192-DPN apparatus (Wyatt Technology) equipped with 661 nm laser. The autocorrelation function for the light scattered by 5-BrBt or TBBt buffered solution placed in Eppendorf disposable cuvettes (50–2000 μl) was measured at various solute concentrations in the range of 0.5 μs– 0.1 s, and further decomposed to the distribution of particle size (ranging from 0.18 nm to 2.5 μm) using Dynamics software (Wyatt Technology, ver. 7.0.2.7). Solutions with 2% (v/v) DMSO content were prepared in 25 mM Tris-HCl (pH 8, 0.5 M NaCl) filtered with 0.22 μm pore size syringe filter. All samples were centrifuged (9000 g) for 3 minutes immediately before the experiment. For each sample a series of at least 30 repetitions, 10 s each, has been collected, and those with abnormally high SOS function and/or with highly fluctuating SLS signal were removed from the analysis. All remaining data have been averaged to obtain the autocorrelation function (ACF) of a reasonable quality. This procedure was found indispensable for diluted TBBt solutions, in which large aggregates have rarely scattered light crossing the laser beam. Consequently, extreme fluctuations of ACF precluded direct analysis of the time-evolution of TBBt aggregates. However, the raw SLS signal was found applicable to estimate the rate of aggregate disintegration.

[7] = UV-VIS spectroscopy, deviation from Lambert-Beer law (ligand aggregation); type: physicochemical
Procedure: The absorption spectra (200–500 nm) were collected at 25°C using Varian Cary 50 UV-VIS spectrophotometer equipped with 1 cm quartz cells. The initial buffer solution was manually titrated with the 851 μM TBBt solution to record spectra for increasing solute concentration. For each sample UV-VIS spectrum was collected four times, every 20 s including 15 s acquisition time, starting 5 s after solute dilution. The changes in the absorption spectrum of 40 μM TBBt sample, prepared just before the experiment, were additionally tracked for an hour to follow possible disintegration of soluble aggregates.

[8] = design: method as in http://www.sigmaaldrich.com/catalog/product/sigma/t0826; settings: ref http://www.sigmaaldrich.com/catalog/product/sigma/t0826; cited from earlier work
[9] = strong site, read-out: Kd1 (strong binding site)
[10] = weak site, read-out: Kd2 (weak binding site)

T1 sequence (P68400 whole entry): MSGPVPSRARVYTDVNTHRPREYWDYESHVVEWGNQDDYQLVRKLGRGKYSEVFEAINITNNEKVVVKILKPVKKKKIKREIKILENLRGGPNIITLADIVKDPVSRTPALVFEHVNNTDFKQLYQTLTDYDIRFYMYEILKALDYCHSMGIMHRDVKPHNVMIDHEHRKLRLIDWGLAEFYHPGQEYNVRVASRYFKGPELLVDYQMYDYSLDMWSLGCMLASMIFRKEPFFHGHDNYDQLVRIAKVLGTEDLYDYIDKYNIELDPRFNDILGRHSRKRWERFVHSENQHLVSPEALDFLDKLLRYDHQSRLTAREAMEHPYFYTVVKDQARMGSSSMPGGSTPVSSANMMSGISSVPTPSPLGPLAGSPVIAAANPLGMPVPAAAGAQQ

Row | Compound | ΔG1 [1] | ΔG2 [1] | Kd ([1]; read-out: Kd1) [nM] | Kd ([1]; read-out: Kd2) [nM] | ΔH1 [1] [kcal/mol] | ΔS1 [1] [J/mol/K] | ΔH2 [1] [kcal/mol] | ΔS2 [1] [J/mol/K] | Kd [2] [nM] | ΔG [2] [kcal/mol] | ΔH [2] [kcal/mol] | ΔS [2] [J/mol/K] | Kd [3] [nM] | ΔG [3] [kcal/mol] | ΔH [3] [kcal/mol] | ΔS [3] [J/mol/K] | ΔG1 ([4]; strong site) [kcal/mol] | Kd [4, 9] [nM] | ΔG2 ([4]; weak site) [kcal/mol] | Kd [4, 10] [nM] | other results
1 | Brc1cc2[nH]nnc2c(Br)c1Br [4,5,6-Br3Bt, 4,5,6-tribromobenzotriazole] | -40.4 ^x kJ/mol | -30.5 ^x kJ/mol | 83 | 4600 | -10.5 ± 0.48 | -12 ± 9 | 0.48 ± 2.2 | 109 ± 31 | 42 ± 17 | -10.1 ± 0.19 | -9.56 ± 0.24 | 9 ± 4 | 990 ± 270 | -8.2 ± 0.14 | -8.37 ± 0.48 | -2 ± 5 | -9.66 ± 0.17 | 83 ± 29 | -7.29 ± 0.17 | 4600 ± 1400 | entropic contribution to binding [5]: favorable entropic contribution
2 | Brc1cc2nn[nH]c2cc1Br [5,6-Br2Bt, 5,6-dibromobenzotriazole] | -40.5 ^x kJ/mol | -30.6 ^x kJ/mol | 81 | 4400 | -18.6 ± 3.11 | -126 ± 43 | 2.63 ± 8.13 | 140 ± 114 | 46 ± 10 | -10 ± 0.12 | -17 ± 0.48 | -98 ± 6 | 1170 ± 270 | -8.1 ± 0.12 | -15.1 ± 0.48 | -97 ± 8 | -9.68 ± 0.14 | 81 ± 22 | -7.31 ± 0.072 | 4400 ± 500 | –
3 | Brc1ccc2nn[nH]c2c1 [5-BrBt] | -37.7 ^x kJ/mol | -29.7 ^x kJ/mol | 246 | 6300 | -17.4 ± 1.2 | -118 ± 15 | 1.7 ± 5.5 | 123 ± 77 | 294 ± 73 | -8.91 ± 0.12 | -16.7 ± 0.72 | -110 ± 10 | 310 ± 89 | -8.87 ± 0.14 | -16.3 ± 0.72 | -102 ± 9 | -9.01 ± 0.072 | 246 ± 36 | -7.1 ± 0.096 | 6300 ± 1000 | formation of nano-aggregates (DLS autocorrelation function) [6]: no such effect was observed; plot of concentration versus absorbance (Lambert-Beer law) ([7]; control experiment): remained linear
4 | Brc1c(Br)c(Br)c2[nH]nnc2c1Br [TBBt, tetrabromobenzotriazole] | – | – | – | – | – | – | – | – | – | – | – | – | – | – | – | – | – | – | – | – | formation of nano-aggregates (DLS autocorrelation function) [6]: forms nano-aggregates; radius of nano-aggregates ([6]; DLS, 1 mM down to 20 μM): ~ 100 nm and 100 nm; τ, decay of the aggregate population (raw SLS signal) ([6]; after rapid dilution of 500 μM sample): 460 ± 40 s; τ, increase of population of the monomeric form (absorption at 291 nm) ([7]; 40 μM solution, tracked for an hour): 670 ± 40 s; upper limit of ligand concentration at which monomeric form predominates ([7]; UV absorbance, deviation from Lambert-Beer law): 20 to 30 µM; solubility in pure DMSO [8]: 65 mM (≈ 28.3 mg/mL)
